# Data as given in US20090216187A1, “Method of Treatment of Vascular Diseases” (priority 2008, published 2009).
# Like-named read-outs stand apart in the source and are kept apart here.
# Columns and labels:
# [1] = renal elimination after incorporation (animal experimental data); format: in vivo
# Source text: To date one accidental Rhenium-188 incorporation caused by balloon rupture has been reported. The measured total body dose of the treated patient was 113 mGy (image-based analysis) and 88 mGy (biological analysis), respectively. Thus, the measured radiation exposures were within the theoretical calculated ranges. [Paeng J. C., Lee D. S., Kang W. J., Yang H. M., Chung J. K., Jeong J. M., Chae I. H., Lee M. M., Lee M. C. “Dosimetry in leakage of (188)Re-DTPA during intracoronary balloon brachytherapy” Eur. J. Nucl. Med. Mol. Imaging. 2003; 30(9): 1263-1265]. […] Therefore, Rhenium-188 will remain in the body for about 2 days after incorporation. In the body Rhenium-188 is mainly absorbed by the thyroid (0.0167 mGy/MBq) and the stomach (0.013 mGy/MBq) [Knapp F. F., Jr., Guhlke S., Beets A. L., Lin W. Y., Stabin M., Amols H., Weinberger J. “Endovascular beta irradiation for prevention of restenosis using solution radioisotopes: pharmacologic and dosimetric properties of rhenium-188 compounds.” Cardiovasc. Radiat. Med. 1999; 1(1): 86-97; Lin W. Y., Tsai S. C., Hsieh B. T. Lee T. W., Ting G., Wang S. J “Evaluation of three rhenium-188 candidates for intravascular radiation therapy with liquid-filled balloons to prevent restenosis” J. Nucl. Cardiol. 2000; 7(1): 37-42]. […]
# [2] = patient after balloon rupture, cited from earlier work
# [3] = renal elimination after incorporation; animal experimental data; cited from earlier work
# [4] = cited from earlier work
# [5] = subsequent oral administration of perchlorate after Rhenium-188 incorporation; cited from earlier work
# [6] = complete accidental incorporation of a balloon filling of about 3 ml; cited from earlier work
compound,measurement,setting,value
[188Re] [Rhenium-188],time remaining in the body after incorporation,[1],about 2 days
same,measured total body dose,[2]; biological analysis,88 mGy
same,measured total body dose,[2]; image-based analysis,113 mGy
same,elimination half-life,[3],about 7 h
same,absorbed dose,[4]; stomach,0.013 mGy/MBq
same,absorbed dose,[4]; thyroid,0.0167 mGy/MBq
[O-][Cl+3]([O-])([O-])O [perchlorate],whole-body radiation reduced to,[5],38%
Rhenium-188-DPTA,theoretical calculated total body dose,[6],approximately 63 mGy
